In PubChem BioAssay AID977613 (Broad Institute, 2014):
Activity calls are given as the source filed them. The rule behind the calls is not given here.

Tested on: Broad 7084-01 inhibitor HTS, set 2
Assay: single-concentration hits, screen 7084 set 2 (AID 977613);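 note: host cells are infected with parasite promastigotes that become internalized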

| SMILES | active concentration |
| --- | --- |
| CCC(=O)N1C[C@@H]2[C@H](c3ccccc31)[C@H](CO)N2C(=O)CC | > 10 µM (inactive) |
| O=C(c1cccc(F)c1)N1C[C@@H]2[C@H](c3ccccc31)[C@@H](CO)N2C(=O)C1CCOCC1 | > 10 µM (inactive) |
| COc1ccc(CN2[C@@H]3CN(C(=O)Nc4ccc(F)cc4)c4ccccc4[C@@H]3[C@@H]2CO)cc1 | > 10 µM (inactive) |
| O=C(Cc1ccccc1)N1C[C@H]2[C@@H](c3ccccc31)[C@@H](CO)N2C(=O)c1cccc(F)c1 | > 10 µM (inactive) |
| O=C(Cc1ccccc1)N1CC[C@@H]2[C@H](CO)Nc3ccc(C4=CCCCC4)cc3[C@@H]21 | > 10 µM (inactive) |
| C/C=C/c1ccc([C@@H]2[C@H]3CN(Cc4ccc(F)cc4)CC(=O)N3[C@H]2CO)cc1 | > 10 µM (inactive) |
| C[C@H](O)C#Cc1ccc([C@H]2[C@@H](CO)N3CCCCN(C(=O)c4ccc5c(c4)OCO5)C[C@H]23)cc1 | > 10 µM (inactive) |
| O=C1CNC[C@H]2[C@@H](c3ccc(C4=CCCC4)cc3)[C@H](CO)N12 | > 10 µM (inactive) |
| COc1ccc2c3c(n(C)c2c1)[C@H](CO)N(C(=O)Nc1ccc(F)cc1)CC31CCN(S(=O)(=O)c2cccc(C)c2)CC1 | > 10 µM (inactive) |
| CC(=O)N1CC[C@@H]2[C@@H](CO)N(C)c3ccc(-c4ccc(C#N)cc4)cc3[C@@H]21 | > 10 µM (inactive) |
| CC(C)(O)C#Cc1ccc([C@H]2[C@H](CO)N3CCCCN(S(C)(=O)=O)C[C@@H]23)cc1 | > 10 µM (inactive) |
| CN1C(=O)c2cc(NC(=O)Cc3cccs3)ccc2OC[C@H]2O[C@H](CC(=O)N[C@@H]3CCN(Cc4ccccc4)C3)CC[C@@H]21 | > 10 µM (inactive) |
| Cc1ccc(CN2CC(=O)N3[C@H](C2)[C@H](c2ccc(-c4ccccc4F)cc2)[C@@H]3CO)cc1 | > 10 µM (inactive) |
| O=C(C[C@@H]1CC[C@H]2[C@@H](COC[C@H](O)CN2C(=O)Nc2ccc(C(F)(F)F)cc2)O1)NCC1CC1 | > 10 µM (inactive) |
| CC(C)CC#Cc1ccc([C@H]2[C@@H](CO)N3C(=O)CN(C(=O)c4ccccn4)C[C@@H]23)cc1 | > 10 µM (inactive) |
| Cc1ccccc1S(=O)(=O)N1CC[C@@H]2[C@@H](CO)Nc3ccc(C#Cc4ccccc4)cc3[C@@H]21 | > 10 µM (inactive) |
| O=C(Nc1cccc(F)c1)N1C[C@@H]2[C@H](c3ccccc31)[C@@H](CO)N2C(=O)Cc1ccccn1 | > 10 µM (inactive) |
| CCCNC(=O)N1CC2(C1)[C@H](c1ccccc1)[C@@H](CO)N2Cc1cccc(Cl)c1 | > 10 µM (inactive) |
| COc1ccccc1CN1[C@H](CO)[C@H]2c3ccccc3N(C(=O)C3CCCCC3)C[C@H]21 | > 10 µM (inactive) |
| O=C(NC1CCCC1)N1CCCCN2[C@H](C1)[C@@H](c1ccc(-c3cccnc3)cc1)[C@@H]2CO | > 10 µM (inactive) |
| COc1ccc(CN2[C@@H]3CNc4ccccc4[C@@H]3[C@@H]2CO)cc1 | > 10 µM (inactive) |
| COc1cccc(S(=O)(=O)N2CCCCN3[C@H](CO)[C@H](c4ccc(C#CCC(C)C)cc4)[C@@H]3C2)c1 | > 10 µM (inactive) |
| N#C[C@H]1[C@@H](c2ccccc2C2=CCCC2)[C@@H](CO)N1S(=O)(=O)c1ccccc1 | > 10 µM (inactive) |
| CCCNC(=O)N1[C@H](C#N)[C@H](c2ccccc2-c2ccccc2F)[C@@H]1CO | > 10 µM (inactive) |

| SMILES | active concentration |
| --- | --- |
| O=C(C[C@@H]1CC[C@H]2[C@@H](COC[C@@H](O)CN2C(=O)Nc2cc(Cl)cc(Cl)c2)O1)NCC1CCCCC1 | > 10 µM (inactive) |
| CCCC#Cc1ccc([C@H]2[C@H](CO)N3C(=O)CN(C(=O)c4cccnc4)C[C@@H]23)cc1 | > 10 µM (inactive) |
| O=C(C[C@H]1CC[C@H]2[C@@H](COC[C@@H](O)CN2C(=O)c2ccccc2F)O1)NCc1ccccc1 | > 10 µM (inactive) |
| Cc1nn(C)cc1NC(=O)C[C@@H]1CC[C@@H]2[C@H](COc3ccc(NC(=O)C4CCOCC4)cc3C(=O)N2C)O1 | > 10 µM (inactive) |
| COC(=O)[C@H]1[C@H](CO)[C@H]2Cn3c(ccc(-c4ccccc4OC)c3=O)[C@H]2N1C(=O)c1cnccn1 | > 10 µM (inactive) |
| COc1ccccc1-c1ccccc1[C@@H]1[C@@H](C#N)N(C(=O)C2CCOCC2)[C@H]1CO | > 10 µM (inactive) |
| O=C(NCc1cc(F)cc(F)c1)[C@@H]1[C@@H](CO)[C@@H]2Cn3c(cccc3=O)[C@H]1N2 | > 10 µM (inactive) |
| O=C(Nc1ccc(F)cc1)N1[C@@H]2CNc3ccccc3[C@@H]2[C@@H]1CO | > 10 µM (inactive) |
| N#C[C@@H]1[C@@H](c2ccccc2-c2cccc(F)c2)[C@@H](CO)N1C(=O)C1CC1 | > 10 µM (inactive) |
| Cn1cnc(CCNC(=O)C[C@@H]2CC[C@H]3[C@@H](COC[C@H](O)CN3C(=O)C3CC3)O2)c1 | > 10 µM (inactive) |
| O=C(c1ccccn1)N1C[C@@H]2[C@H](c3ccccc31)[C@H](CO)N2C(=O)Nc1ccccc1F | > 10 µM (inactive) |
| O=C(CC1CC1)N1[C@@H]2CN(S(=O)(=O)c3ccccc3F)c3ccccc3[C@@H]2[C@@H]1CO | > 10 µM (inactive) |
| CN1C(=O)c2cc(NS(C)(=O)=O)ccc2OC[C@H]2O[C@H](CC(=O)N3CCOCC3)CC[C@@H]21 | > 10 µM (inactive) |
| CN(C)C(=O)c1cccc(-c2ccc([C@H]3[C@H](CO)N4CCCCN(CC5CCOCC5)C[C@@H]34)cc2)c1 | > 10 µM (inactive) |
| O=S(=O)(c1ccc(F)cc1)N1CCCCN2[C@H](CO)[C@@H](c3ccc(-c4cncnc4)cc3)[C@H]2C1 | > 10 µM (inactive) |
| CCCC(=O)N1CC2(C1)CN(C(=O)c1ccc(F)cc1)[C@H](CO)c1[nH]c3cc(OC)ccc3c12 | > 10 µM (inactive) |
| CC(C)NC(=O)Nc1ccc2c(c1)C(=O)N(C)[C@H]1CC[C@@H](CC(=O)NCc3ccc(F)cc3)O[C@H]1CO2 | > 10 µM (inactive) |
| N#C[C@H]1[C@@H](c2ccccc2-c2ccccc2F)[C@@H](CO)N1C(=O)Cc1ccccc1 | > 10 µM (inactive) |
| C/C=C/c1ccc([C@@H]2[C@@H](CO)N(C(=O)C3CCOCC3)C23CN(C(=O)NC(C)C)C3)cc1 | > 10 µM (inactive) |
| N#C[C@H]1[C@H](c2ccccc2C2=CCCCC2)[C@H](CO)N1C(=O)c1cccc(F)c1 | > 10 µM (inactive) |
| COCC#Cc1ccc([C@H]2[C@@H](CO)N3C(=O)CN(C(=O)Nc4ccccc4F)C[C@@H]23)cc1 | > 10 µM (inactive) |
| OC[C@@H]1[C@@H]2c3ccccc3NC[C@@H]2N1Cc1ccccc1Cl | > 10 µM (inactive) |
| Cc1cccc(S(=O)(=O)N2C[C@H](O)COC[C@@H]3O[C@H](CC(=O)Nc4ccccc4)CC[C@H]32)c1 | > 10 µM (inactive) |
| O=S(=O)(c1ccc(F)cc1)N1C[C@@H]2[C@H](c3ccccc31)[C@H](CO)N2Cc1ccc2c(c1)OCO2 | > 10 µM (inactive) |

| SMILES | active concentration |
| --- | --- |
| COc1ccccc1CNC(=O)C[C@H]1CC[C@@H]2[C@H](COC[C@@H](O)CN2C(=O)Nc2ccccc2)O1 | > 10 µM (inactive) |
| CN1[C@H](CO)[C@@H]2c3ccccc3N(C(=O)c3ccc(F)cc3)C[C@@H]21 | > 10 µM (inactive) |
| Cc1ccccc1S(=O)(=O)N1CCCCN2[C@H](CO)[C@@H](c3ccc(C#CCN(C)C)cc3)[C@H]2C1 | > 10 µM (inactive) |
| COc1cccc(-c2ccccc2[C@H]2[C@@H](C#N)N(C(=O)c3ccccn3)[C@@H]2CO)c1 | > 10 µM (inactive) |
| COc1ccccc1C(=O)Nc1ccc2c(c1)C(=O)N(C)[C@H]1CC[C@@H](CC(=O)NCCc3ccncc3)O[C@H]1CO2 | > 10 µM (inactive) |
| O=C(c1ccncc1)N1C[C@H]2[C@@H](c3ccccc31)[C@@H](CO)N2Cc1ccccc1F | > 10 µM (inactive) |
| CC1C=NC(S(=O)(=O)N2CC[C@@H]3[C@H](CO)N(C)c4ccc(-c5ccccc5F)cc4[C@@H]32)=N1 (stereo not given in full) | > 10 µM (inactive) |
| CC(C)CC#Cc1ccc([C@@H]2[C@H](CO)N3C(=O)CN(S(=O)(=O)c4cccc(F)c4)C[C@@H]23)cc1 | > 10 µM (inactive) |
| N#C[C@@H]1[C@@H](c2ccccc2-c2cccc(F)c2)[C@@H](CO)N1C(=O)CN1CCOCC1 | > 10 µM (inactive) |
| CC(C)NC(=O)N1[C@H](CO)[C@H](c2ccccc2)C12CN(C(=O)Cc1cccnc1)C2 | > 10 µM (inactive) |
| COc1ccc(NC(=O)N2CCCCN3[C@H](CO)[C@@H](c4ccc(-c5ccccc5F)cc4)[C@@H]3C2)cc1 | > 10 µM (inactive) |
| COC(=O)[C@H]1[C@H](CO)[C@H]2Cn3c(ccc(-c4cccc(OC)c4)c3=O)[C@H]2N1Cc1nccs1 | > 10 µM (inactive) |
| Cn1cnc(S(=O)(=O)N2C[C@@H](O)COC[C@H]3O[C@H](CC(=O)NC4CCCC4)CC[C@@H]32)c1 | > 10 µM (inactive) |
| O=C(CC1CC1)N1CC(=O)N2[C@H](CO)[C@@H](c3ccc(/C=C/c4ccccc4)cc3)[C@@H]2C1 | > 10 µM (inactive) |
| CC(=O)N1CCCCN2[C@H](CO)[C@H](c3ccc(-c4ccccc4)cc3)[C@H]2C1 | > 10 µM (inactive) |
| Cc1ccc(NC(=O)C[C@H]2CC[C@H]3[C@@H](COc4ccc(NC(=O)C5CCC5)cc4C(=O)N3C)O2)cc1 | > 10 µM (inactive) |
| OC[C@H]1[C@@H](c2ccc(-c3ccccc3F)cc2)[C@H]2CN(Cc3cncnc3)CCCCN21 | > 10 µM (inactive) |
| O=C(C1CCOCC1)N1CC(=O)N2[C@@H](CO)[C@@H](c3ccc(C#CCc4ccccc4)cc3)[C@@H]2C1 | > 10 µM (inactive) |
| O=C(CC(F)(F)F)N1C[C@@H]2[C@H](c3ccccc31)[C@H](CO)N2C(=O)C1CC1 | > 10 µM (inactive) |
| O=C1CN(S(=O)(=O)Cc2ccccc2)C[C@H]2[C@@H](c3ccc(C#Cc4ccccc4)cc3)[C@H](CO)N12 | > 10 µM (inactive) |
| O=C(C[C@H]1CC[C@@H]2[C@H](COC[C@@H](O)CN2CC2CC2)O1)NCC1CC1 | > 10 µM (inactive) |
| O=C(CN1CCOCC1)N1CC(=O)N2[C@H](CO)[C@@H](c3ccc(-c4cccc(F)c4)cc3)[C@@H]2C1 | > 10 µM (inactive) |
